What was measured:
[1] = tested on: idiopathic pulmonary fibrosis; conditions: cited from earlier work
TGFα mice = experiment: TGFα-induced pulmonary fibrosis mouse model, therapeutic intervention in established fibrosis; assay type: in vivo; conditions: vs vehicle
Text: Mouse model of TGFα-induced pulmonary fibrosis and Barasertib treatment therapy The generation of TGFα-overexpressing mice has been described previously (HARDIE et al. (2004) “Conditional expression of transforming growth factor-alpha in adult mouse lung causes pulmonary fibrosis” Am J Physiol Lung Cell Mol Physiol, Vol. 286, pp. L741-749, which is herein incorporated by reference in its entirety). Clara cell-specific protein-rtTA^+/− (CCSP-rtTA) mice were crossed with heterozygous (TetO)7-cmv TGFα mice to produce bitransgenic CCSP/TGFα mice. To induce TGFα expression, the transgenic mice were fed with doxycycline (Dox)-containing chow (62.5 mg/kg) (MADALA et al. (2014) “Inhibition of the alphavbeta6 integrin leads to limited alteration of TGF-alpha-induced pulmonary fibrosis” Am J Physiol Lung Cell Mol Physiol, Vol. 306, pp. L726-735, which is herein incorporated by reference in its entirety). They were housed under specific pathogen-free conditions and handled in accordance with protocols approved by the Institutional Animal Care and Use Committee of the Cincinnati Children's Hospital Research Foundation. Barasertib (Selleckchem, Houston, Tex.) was prepared in fresh vehicle (5% DMSO and 50% PEG in PBS) every day before treatment. […]

Question: With `COC(=O)c1ccc2c(c1)NC(=O)/C2=C(\Nc1ccc(N(C)C(=O)CN2CCN(C)CC2)cc1)c1ccccc1` [nintedanib] as the compound, how does the effect on mortality [1] read?
Answer: Its effect on mortality is “neither pirfenidone nor nintedanib had any effect”.

Question: And the “fibroproliferation (Ki67 immunostaining of lung sections)” value (TGFα mice; Dox two weeks, then barasertib 25 or 50 mg/kg QD or nintedanib 60 mg/kg QD for 5 days, data not shown)?
Answer: The value was “reduction in fibroproliferation”.

Question: What about the “expression of ECM genes (Co11α, FN1; RT-PCR)” value (TGFα mice; barasertib 25 or 50 mg/kg QD or nintedanib 60 mg/kg QD i.p., FIG. 14) of the same compound?
Answer: Its value is “attenuated”.

Question: What does the source list for `Cc1ccc(=O)n(-c2ccccc2)c1` [pirfenidone]?
Answer: effect on mortality [1]: neither pirfenidone nor nintedanib had any effect; effect on respiratory symptoms [1]: no effect
